Assays:
Experiment in all cases: relative viability vs DMSO control (72 h) (fraction); higher = more viable cells
SW982 = test system: SW982
How it was run: (§1)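 Relative viability was measured with ATPLite and expressed as percent growth, averaged across up to triplicate wells. Sarcoma cell lines had been seeded in 384-well plates to reach 80–90% confluence, dosed after 24 h, and incubated 72 h at 37 °C, 5% CO2. All data were rescaled on a scale where 1 is full and 0 is none.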

SK-ES-1 = test system: SK-ES-1
How it was run: as §1

VA-ES-BJ = test system: VA-ES-BJ
How it was run: as §1

A204 = test system: A204
How it was run: as §1

MES-SA = test system: MES-SA
How it was run: as §1

CC(C)NC[C@@H](C(=O)N1CCN(c2ncnc3c2[C@H](C)C[C@H]3O)CC1)c1ccc(Cl)cc1 [Ipatasertib]
relative viability
Conditions	A204	MES-SA	SK-ES-1	SW982	VA-ES-BJ
0.00017 µM	1.06	0.935	1.03	0.991	1.07
0.00051 µM	1.08	0.904	1.04	0.985	1.04
0.00152 µM	1.05	0.9385	1.01	1.02	1.03
0.00457 µM	1.05	0.905	1	1	1.022
0.01372 µM	1.05	0.8986	1.02	0.945	0.955
0.04115 µM	0.992	0.847	0.947	0.949	0.8984
0.1235 µM	0.953	0.751	0.944	0.962	0.819
0.3704 µM	0.751	0.619	0.79	0.881	0.666
1.111 µM	0.711	0.467	0.683	0.824	0.492
3.333 µM	0.621	0.317	0.529	0.745	0.418
10 µM	0.509	0.24	0.473	0.652	0.368

COC(=O)[C@@]1(O)C[C@H]2O[C@]1(C)n1c3ccccc3c3c4c(c5c6ccccc6n2c5c31)C(=O)NC4 [K-252a]
relative viability
Conditions	A204	MES-SA	SK-ES-1	SW982	VA-ES-BJ
0.00017 µM	1.06	0.97	1.06	1.05	1.09
0.00051 µM	1.11	0.953	1.05	1.064	1.07
0.00152 µM	1.06	0.956	1.02	1.079	1.09
0.00457 µM	1.07	0.916	1.02	1.07	1.07
0.01372 µM	0.941	0.827	0.778	1.02	1.05
0.04115 µM	0.6765	0.618	0.508	0.733	0.922
0.1235 µM	0.527	0.596	0.398	0.559	0.773
0.3704 µM	0.433	0.407	0.256	0.443	0.67
1.111 µM	0.374	0.324	0.126	0.2914	0.381
3.333 µM	0.31	0.0952	0.115	0.151	-0.0139
10 µM	0.0136	0.00197	0.114	0.0215	-0.0189
